The record followed here is patent US20220117945A1, “ISOXAZOLE CARBOXAMIDE COMPOUNDS AND USES THEREOF” (NOVARTIS AG, priority 2017, published 2022).

Assay [1] deals with 6-day-postnatal mouse cochlea explants with hair cell damage. Description: Ex vivo hair cell induction assay using 6-day-postnatal mouse cochlea explants with hair cell damage. In kind it is cell-based. The following applies: P6 Atoh1-GFP mouse cochlea explants, neomycin-damaged; 3 to 10 μM compound for 8 days, then 4 days blank medium; mean ± SD; DMSO = 0%; more than 20% considered significant. Here is the method:
(§1) Compounds of the present disclosure were assessed for their ability to increase the Atoh1 expression in mouse cerebellar neural precursor cells. The ability of compounds of the present disclosure to induce new hair cell formation was assessed in ex vivo hair cell induction assay using 6-day-postnatal mouse cochlea explants with hair cell damage.
Ex Vivo Hair Cell Induction Assay Using 6-Day-Postnatal Mouse Cochlea Explants with Hair Cell Damage
P6, postnatal 6 days, Atoh1-GFP mice, the same mouse strain used for Atoh1 induction assay described before, were used in this assay. The otic capsule was exposed and the cochleae were micro-dissected. […] and in vitro cultured in serum free medium (culture medium: DMEM/F12+1% N2+2% B27+5 μg/ml ampicillin) at 37° C. under a standard gas atmosphere of humidified air/5% CO2. Inner ear hair cells were damaged by 1 mM Neomycin treatment for 1.25 h. After the neomycin treatment, explants were cultured in blank culture medium for 7 days before the treatment of selected compounds.
For compound administration, the cochlea explants were treated with 3 to 10 μM compound of the present disclosure, with DMSO as the negative control for 8 days with once compound/medium change. After 8 days treatment, the tested compound was removed. The explants were cultured in blank medium for additional 4 days. The cochlea explant cultures then were fixed with 4% w/v formalin and processed for Myo7a immunofluorescence (Myo7a is a specific marker for sensory hair cell) using the rabbit anti-Myo7a antibody (Protus Biosci #25-6790, 1:250 diluted in PBS containing 3% BSA). Rhodamine labeled Goat-anti-rabbit IgG (Molecular Prob. #R6394, 1:1000 diluted in PBS containing 3% BSA) was used as the secondary antibody to visualize the Myo7a positive cells. The images were collected and analyzed using the EVOS image system (Thermo-Fisher Scientific). […] The hair cell identity of the ectopically formed cells was confirmed by staining the cells with multiple hair cell markers.
The efficacy of hair cells induction in this assay is represented by the responsive length percentage of Atoh1 and Myo7a double positive cells in the damaged whole explants after compound treatment. The responsive length percentage was calculated according to the equation of ((the explant length with Atoh1 and Myo7a double positive cells/the full length of cochlea explant)*100%). Note the value of DMSO control is 0% due to total damage of hair cells, and any responsive length percentage more than 20% is considered as significant hair cell induction.

Assay [2] has as its system Atoh1 expression in mouse cerebellar neural precursor cells. The experiment in a line: Atoh1 induction assay in mouse cerebellar neural precursor cells (NPCs), Atoh1-GFP reporter. The assay is classed as cell-based. The following applies: 10 doses 50 μM to 200 nM, 72 hours treatment, DMSO control = 1, more than 5 considered significant, read-out: fold difference (maximum fold difference of GFP average intensity in cell nuclei over the DMSO control). Here is the method: as §1
Atoh1 Induction Assay in Mouse Cerebellar Neural Precursor Cells (NPCs)
Atoh1 induction assay was conducted with in vitro cultured cerebellar neural precursor cells isolated from neonatal transgenic Atoh1-GFP mice. Atoh1 expression is mainly regulated by the enhancer, and the nuclear GFP was driven by the cloned enhancer sequence at 3′ of Atoh1 which had high conservation among mammalians. So Atoh1 induction could be reflected by GFP activation in cerebellar neural precursor cells (Helms et al., Development 2000; 127: 1185-1196; Lumpkin et al., Gene Expression Patterns 2003; 3: 389-395). Postnatal 3 days pups were dissected for cerebellum tissue isolation. The cerebellum tissue was cut into small pieces, and dissociated with 0.05% Trypsin for about 10 minutes at 37° C., and then filtered with a 70 uM cell strainer. The cells were cultured as neuropsheres for the first 2 days in ultra-low attachment dish/well-plate with DMEM/F12+1% N2 &2% B27 with 1% P/S, 20 ng/ml rhFGF2 and 20 ng/ml rhEGF (R&D Systems). Then the spheres were plated to the matrigel (1:30 diluted in DMEM/F12)-coated tissue culture dish for monolayer culture. After 4.5-5.5 days culture in vitro (DIV), cells were dissociated with 0.05% trypsin into single cells, and frozen after cell number calculation.
The cerebellar neural precursor cells (NPCs) were re-thawed from stock and cultured for another 2 days before used for Atoh1 induction assay. On the first day of assay, NPCs were seeded into matrigel-coated 384 well plates (Black view-plate, PE) at 2500 cells/well. After over-night culture, the NPCs were treated with representative compounds of the present disclosure with 1:2 serial dilutions for 10 doses, from 50 μM to 200 nM, with DMSO as negative control. After 72 hours treatment without medium change, the cells were fixed with 4% formalin for staining. Assay plates were stained with GFP antibody (Abcam, #13970, 1:1000) to amplify endogenous GFP signal and then read by Cellomics.

Consider `N#CCC1CN(CCCCCNC(=O)c2cc(-c3cccs3)on2)C1` [Example 49], for which, in assay [1], the “Responsive length % (explant length with Atoh1 and Myo7a double positive cells / full length of cochlea explant)” value stood at 47.5 ± 9.2%. The maximal fold induction in assay [2] is 37.1.

Consider `CC1CN(CCCCCNC(=O)c2cc(-c3cccs3)on2)CC(C)N1C` (centres unmarked) [Example 15, 5-(Thiophen-2-yl)-N-(5-(3,4,5-trimethylpiperazin-1-yl)pentyl)isoxazole-3-carboxamide], for which the “Responsive length % (explant length with Atoh1 and Myo7a double positive cells / full length of cochlea explant)” value in assay [1] turned out to be 50.1 ± 9.9%. In addition, the maximal fold induction in assay [2] was determined as 15.3.

Consider `N#CC1CCN(CCCCCNC(=O)c2cc(-c3cccs3)on2)CC1` [Example 56], for which, in assay [1], the “Responsive length % (explant length with Atoh1 and Myo7a double positive cells / full length of cochlea explant)” value is reported as 26.5 ± 9.4%. In assay [2], the maximal fold induction worked out at 36.9.

Take `O=C(NCCCCCN1CC2CCC(C1)O2)c1cc(-c2cccs2)on1` [Example 51, N-(5-(8-oxa-3-azabicyclo[3.2.1]octan-3-yl)pentyl)-5-(thiophen-2-yl)isoxazole-3-carboxamide]: the “Responsive length % (explant length with Atoh1 and Myo7a double positive cells / full length of cochlea explant)” value in assay [1] was 48.6 ± 3.0%. The maximal fold induction in assay [2] stood at 9.9.

Turning to `COC1CN(CCCCCNC(=O)c2cc(-c3cccs3)on2)C1` [Example 47], the “Responsive length % (explant length with Atoh1 and Myo7a double positive cells / full length of cochlea explant)” value in assay [1] is given as 64.4 ± 17.2%. Further, the maximal fold induction in assay [2] was found to be 27.8.

For `NC(=O)C1CN(CCCCCNC(=O)c2cc(-c3ccc(F)cc3)on2)C1` [Example 65, N-(5-(3-carbamoylazetidin-1-yl)pentyl)-5-(4-fluorophenyl)isoxazole-3-carboxamide], the “Responsive length % (explant length with Atoh1 and Myo7a double positive cells / full length of cochlea explant)” value in assay [1] came to 43.1 ± 7.6%. For the same compound, the maximal fold induction in assay [2] was found to be 29.8.

On to `O=C(NCCCCCN1CC[C@H](O)C1)c1cc(-c2cccs2)on1` [Example 36], for which the “Responsive length % (explant length with Atoh1 and Myo7a double positive cells / full length of cochlea explant)” value in assay [1] is 28.1 ± 6.3%. Also, the maximal fold induction in assay [2] was 15.7.

`CC1CN(CCCCCNC(=O)c2cc(-c3cccs3)on2)CC(C)N1` (centres unmarked) [Example 14, N-(5-(3,5-Dimethylpiperazin-1-yl)pentyl)-5-(thiophen-2-yl)isoxazole-3-carboxamide]: the “Responsive length % (explant length with Atoh1 and Myo7a double positive cells / full length of cochlea explant)” value in assay [1] came to 45.3 ± 6.7%. Moreover, in assay [2], the maximal fold induction is 29.1.

Consider `O=C(NCCCCCN1CC(O)C1)c1cc(-c2ccc(F)cc2)on1` [Example 67], for which, in assay [1], the “Responsive length % (explant length with Atoh1 and Myo7a double positive cells / full length of cochlea explant)” value is reported as 58.2 ± 3.5%. In assay [2], the maximal fold induction was determined as 18.9.

For the compound `COC(=O)NC1CN(CCCCCNC(=O)c2cc(-c3cccs3)on2)C1` [Example 17, Methyl (1-(5-(5-(thiophen-2-yl)isoxazole-3-carboxamido)pentyl)azetidin-3-yl)carbamate], in assay [1], the “Responsive length % (explant length with Atoh1 and Myo7a double positive cells / full length of cochlea explant)” value was determined as 52.9 ± 6.8%. Moreover, in assay [2], the maximal fold induction turned out to be 34.6.

As for `O=C(NCCCCCN1CCN(CCO)CC1)c1cc(-c2cccs2)on1` [Example 54, N-(5-(4-(2-hydroxyethyl)piperazin-1-yl)pentyl)-5-(thiophen-2-yl)isoxazole-3-carboxamide], the “Responsive length % (explant length with Atoh1 and Myo7a double positive cells / full length of cochlea explant)” value in assay [1] is listed as 35.6 ± 11.8%. Besides, the maximal fold induction in assay [2] amounted to 27.8.

Consider `CC(=O)N1CCN(CCCCCNC(=O)c2cc(-c3cccs3)on2)CC1` [Example 40], for which the “Responsive length % (explant length with Atoh1 and Myo7a double positive cells / full length of cochlea explant)” value in assay [1] was determined as 36.9 ± 7.4%. Besides, the maximal fold induction in assay [2] amounted to 21.5.

Consider `N#CCC1CN(CCCCCNC(=O)c2cc(-c3ccc(F)cc3)on2)C1` [Example 66], for which the “Responsive length % (explant length with Atoh1 and Myo7a double positive cells / full length of cochlea explant)” value in assay [1] came to 61.5 ± 6.0%. Moreover, the maximal fold induction in assay [2] is 25.1.

Turning to `CN1CCN(CCCCCNC(=O)c2cc(-c3cccs3)on2)CC1` [Example 8, N-(5-(4-Methylpiperazin-1-yl)pentyl)-5-(thiophen-2-yl)isoxazole-3-carboxamide], the “Responsive length % (explant length with Atoh1 and Myo7a double positive cells / full length of cochlea explant)” value in assay [1] was 54.0 ± 6.3%. Also, the maximal fold induction in assay [2] was determined as 30.9.

With `C[C@@H]1CN(CCCCCNC(=O)c2cc(-c3cccs3)on2)C[C@H](C)O1` [Example 42], the “Responsive length % (explant length with Atoh1 and Myo7a double positive cells / full length of cochlea explant)” value in assay [1] came to 28.8 ± 8.3%. Also, the maximal fold induction in assay [2] came out at 23.7.

In the case of `O=C(NCCCCCN1CC(O)C1)c1cc(-c2cccs2)on1` [Example 48], the “Responsive length % (explant length with Atoh1 and Myo7a double positive cells / full length of cochlea explant)” value in assay [1] amounted to 75.8 ± 4.5%. The maximal fold induction in assay [2] was determined as 37.5.

Consider `CN1CC2CCC1CN2CCCCCNC(=O)c1cc(-c2cccs2)on1` (centres unmarked) [Example 52, N-(5-(5-methyl-2,5-diazabicyclo[2.2.2]octan-2-yl)pentyl)-5-(thiophen-2-yl)isoxazole-3-carboxamide], for which the “Responsive length % (explant length with Atoh1 and Myo7a double positive cells / full length of cochlea explant)” value in assay [1] amounted to 28.2 ± 11.9%. The maximal fold induction in assay [2] stood at 26.7.

On to `CN1CCN(CCCCCNC(=O)c2cc(-c3ccc(F)cc3)on2)CC1` [Example 10, 5-(4-Fluorophenyl)-N-(5-(4-methylpiperazin-1-yl)pentyl)isoxazole-3-carboxamide], for which the “Responsive length % (explant length with Atoh1 and Myo7a double positive cells / full length of cochlea explant)” value in assay [1] was determined as 59.1 ± 9.1%. Also, the maximal fold induction in assay [2] was 17.6.

As for `O=C(NCCCCCN1CC2CCC(C1)N2)c1cc(-c2cccs2)on1` [Example 11, N-(5-(3,8-Diazabicyclo[3.2.1]octan-3-yl)pentyl)-5-(thiophen-2-yl)isoxazole-3-carboxamide], in assay [1], the “Responsive length % (explant length with Atoh1 and Myo7a double positive cells / full length of cochlea explant)” value is on record as 51.7 ± 8.1%. Besides, the maximal fold induction in assay [2] came out at 12.4.

Turning to `O=C(NCCCCCN1CCC(F)CC1)c1cc(-c2cccs2)on1` [Example 53], the “Responsive length % (explant length with Atoh1 and Myo7a double positive cells / full length of cochlea explant)” value in assay [1] stood at 34.7 ± 9.8%. Moreover, in assay [2], the maximal fold induction was found to be 22.9.

With `O=C(NCCCCCN1CC(F)C1)c1cc(-c2cccs2)on1` [Example 59], the “Responsive length % (explant length with Atoh1 and Myo7a double positive cells / full length of cochlea explant)” value in assay [1] worked out at 54.1 ± 5.8%. For the same compound, the maximal fold induction in assay [2] worked out at 29.1.

`CN1C2CCC1CN(CCCCCNC(=O)c1cc(-c3cccs3)on1)C2` [Example 12, N-(5-(8-Methyl-3,8-diazabicyclo[3.2.1]octan-3-yl)pentyl)-5-(thiophen-2-yl)isoxazole-3-carboxamide]: the “Responsive length % (explant length with Atoh1 and Myo7a double positive cells / full length of cochlea explant)” value in assay [1] came out at 39.7 ± 8.2%. In addition, the maximal fold induction in assay [2] was 21.1.

For the compound `NC(=O)C1CN(CCCCCNC(=O)c2cc(-c3cccs3)on2)C1` [Example 27, N-(5-(3-Carbamoylazetidin-1-yl)pentyl)-5-(thiophen-2-yl)isoxazole-3-carboxamide], in assay [1], the “Responsive length % (explant length with Atoh1 and Myo7a double positive cells / full length of cochlea explant)” value amounted to 66.0 ± 2.4%. In addition, the maximal fold induction in assay [2] came to 33.7.

With `O=C(NCCCCCN1CC[C@H](F)C1)c1cc(-c2cccs2)on1` [Example 45, (S)—N-(5-(3-fluoropyrrolidin-1-yl)pentyl)-5-(thiophen-2-yl)isoxazole-3-carboxamide], the “Responsive length % (explant length with Atoh1 and Myo7a double positive cells / full length of cochlea explant)” value in assay [1] is reported as 51.9 ± 14.9%. Further, in assay [2], the maximal fold induction was determined as 24.

With `O=C(NCCCCCN1CC(CO)C1)c1cc(-c2cccs2)on1` [Example 55], in assay [1], the “Responsive length % (explant length with Atoh1 and Myo7a double positive cells / full length of cochlea explant)” value is recorded as 53.1 ± 6.2%. The maximal fold induction in assay [2] stood at 29.
